{"source": "patent US7063857B1", "about": "“Use of macrolide compounds for the treatment of dry eye” (Sucampo AG, priority 1999, dated 2006)", "key": {"healthy subjects": {"system": "healthy subjects", "assay": "Tear film breakup time (BUT) after instillation in healthy subjects", "type": "in vivo, human", "conditions": "instilled four times a day for 7 days, healthy subjects (6 per group), right eye, difference between before and 8 days after instillation", "description": "A suspension having the same formulation as in Example 1 was produced using FK506 as the active ingredient to give a 0.01% FK506 eye drop (suspension) and 0.1% FK506 eye drop (suspension) as test drugs. The base for the eye drops was used as the control drug. The above-mentioned test drugs and the control drug were instilled four times a day for 7 days to 18 healthy subjects (6 per group) at 8:00, 11:00, 14:00 and 17:00. The tear film breakup time (sec) of the right eye was measured before instillation and 8 days after instillation. The difference between before and after the instillation was calculated, and taken as the mean variation of the tear film breakup time. The tear film breakup time was measured according to the conventional method. After instillation of fluorescein, the tear film was formed on the surface of the eye by nictitation."}, "[1]": {"system": "person having subjective symptoms of dry eye", "assay": "Instillation of FK506 eye drop in a person with subjective symptoms of dry eye", "type": "in vivo, human", "conditions": "0.06% eye drop (suspension), twice a day for two weeks, one patient", "from_the_text": "Using FK506 as the active ingredient in the present invention, a 0.06% eye drop (suspension) having the following formulation was used as a test drug. A suspension having the following formulation was produced in the same manner as in EP-A-0406791 (Example 6). [table]"}}}
{"smiles": "C=CC[C@@H]1/C=C(\\C)C[C@H](C)C[C@H](OC)[C@H]2O[C@@](O)(C(=O)C(=O)N3CCCC[C@H]3C(=O)O[C@H](/C(C)=C/[C@@H]3CC[C@@H](O)[C@H](OC)C3)[C@H](C)[C@@H](O)CC1=O)[C@H](C)C[C@@H]2OC", "note": "[FK506, 17-allyl-1,14-dihydroxy-12-[2-(4-hydroxy-3-methoxycyclohexyl)-1-methylvinyl]-23,25-dimethoxy-13,19,21,27-tetramethyl-11,28-dioxa-4-azatricyclo-[22.3 .1.0^4,9]octacos-18-ene-2,3,10,16-tetraone]", "values": [{"measurement": "Mean variation of tear film breakup time", "setting": "healthy subjects; 0.01% FK506 eye drop (suspension)", "value": "+0.58 sec"}, {"measurement": "Mean variation of tear film breakup time", "setting": "healthy subjects; 0.1% FK506 eye drop (suspension)", "value": "+0.75 sec"}, {"measurement": "subjective symptoms of dry eye (sense of dryness, foreign body and grittiness)", "setting": "[1]", "value": "the subjective symptoms disappeared"}]}
